In this assay the test system is TC-1 cell line (mouse lung cancer cell line). The class given is cell-based. To be noted: TC-1 cells, released from PCL membrane. The procedure: In one embodiment, the drug release rates of different kinds of the biodegradable polymeric membrane were tested. There were 6 experimental groups and 1 control group. Control group: TCPS (Tissue Culture Polystyrene); experimental group 1: the non-porous PCL membrane without any drugs; experimental group 2: the non-porous PCL membrane with 1 μg/ml of Cisplatin (0.3 μg/well); experimental group 3: the non-porous PCL membrane with 10 μg/ml of Cisplatin (3 μg/well); experimental group 4: the porous PCL membrane without any drugs; experimental group 5: the porous PCL membrane with 1 μg/ml of Cisplatin (0.3 μg/well); and experimental group 6: the porous PCL membrane with 10 μg/ml of Cisplatin (3 μg/well). The pores of the above porous PCL membrane were created by 0.01 g/mL of NaCl.
In this embodiment, different kinds of membranes with drugs were cultured in TC-1 cell line (mouse lung cancer cell line) for three days, and the cell growth and cytotoxicity were measured by using AlamarBlue™. The absorbance was at 570 nm and 600 nm as the background.

Each structure is given as a SMILES string.

For `N.N.[Cl][Pt][Cl]` [cisplatin], the killing cancer cells entry is recorded as “capability of killing cancer cells”.
